Test results from patent US10550105B2 (Ribon Therapeutics Inc., priority 2018, dated 2020).
pIC50: −log10 of the molar value.

What follows are compounds tested against PARP7 (Homo sapiens (Human), UniProt Q7Z3E1) (assay: Enzymatic assay for inhibition of PARP7: TR-FRET displacement of biotinylated Probe A from the TIPARP active site). Conditions: Table A-1.
Sequence of PARP7 (Q7Z3E1 whole entry): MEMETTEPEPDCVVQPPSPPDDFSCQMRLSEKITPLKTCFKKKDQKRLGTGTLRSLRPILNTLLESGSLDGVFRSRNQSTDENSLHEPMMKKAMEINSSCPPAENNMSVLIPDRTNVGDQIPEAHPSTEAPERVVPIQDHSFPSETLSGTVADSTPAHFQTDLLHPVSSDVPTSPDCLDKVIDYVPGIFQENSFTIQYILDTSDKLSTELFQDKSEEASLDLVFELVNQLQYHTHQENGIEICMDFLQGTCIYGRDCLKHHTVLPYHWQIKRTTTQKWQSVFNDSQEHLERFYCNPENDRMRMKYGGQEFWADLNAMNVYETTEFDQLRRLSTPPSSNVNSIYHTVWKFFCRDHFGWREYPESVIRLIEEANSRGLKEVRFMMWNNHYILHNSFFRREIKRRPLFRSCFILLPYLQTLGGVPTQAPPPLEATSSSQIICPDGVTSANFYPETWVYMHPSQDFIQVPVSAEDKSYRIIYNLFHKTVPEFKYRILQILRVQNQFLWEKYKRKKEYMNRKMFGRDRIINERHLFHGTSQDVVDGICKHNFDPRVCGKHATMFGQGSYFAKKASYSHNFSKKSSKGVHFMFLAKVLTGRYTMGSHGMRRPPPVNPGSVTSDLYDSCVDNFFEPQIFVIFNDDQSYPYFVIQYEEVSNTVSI
Assay type: binding
Summary of the method: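 Displacement of biotinylated Probe A from TIPARP was measured as the 665/615 nm time-resolved FRET ratio (excitation 320 nm, 90 μs delay) after a further 30 min at 25 °C. Inhibition across compound concentrations was fitted by dose-response regression, with the Hill slope free or fixed at 1 (3-parameter fit).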
With `N#Cc1ccc(N2CCN(C(=O)c3cncc(OC[C@H]4c5ccccc5CN4c4cn[nH]c(=O)c4C(F)(F)F)c3)CC2)nc1` [Example 354, (R)-6-(4-(5-((2-(6-Oxo-5-(trifluoromethyl)-1,6-dihydropyridazin-4-yl)isoindolin-1-yl)methoxy)nicotinoyl)piperazin-1-yl)nicotinonitrile] the pIC50 was 6.00 to 7.00.
`N#Cc1ccc(N2CCN(C(=O)COC[C@@H]3CCCN3c3cn[nH]c(=O)c3C(F)(F)F)CC2)nc1` [Example 76, 6-[4-(2-[[(2S)-1-[6-oxo-5-(trifluoromethyl)-1,6-dihydropyridazin-4-yl]pyrrolidin-2-yl]methoxy]acetyl)piperazin-1-yl]pyridine-3-carbonitrile] gave a pIC50 greater than 7.00.
Work on `O=C(CCOCCOc1cn[nH]c(=O)c1C(F)(F)F)N1CCN(c2ncc(Cl)cn2)CC1` [Example 533, 5-(2-[3-[4-(5-Chloropyrimidin-2-yl)piperazin-1-yl]-3-oxopropoxy]ethoxy)-4-(trifluoromethyl)-2,3-dihydropyridazin-3-one] yielded a pIC50 greater than 7.00.
Compound `N#CCCC(=O)N1CCN(C(=O)CCOC[C@@H]2c3ccccc3CN2c2cn[nH]c(=O)c2C(F)(F)F)CC1` [Example 423, (S)-4-Oxo-4-(4-(3-((2-(6-oxo-5-(trifluoromethyl)-1,6-dihydropyridazin-4-yl)isoindolin-1-yl)methoxy)propanoyl)piperazin-1-yl)butanenitrile] has a pIC50 greater than 7.00.
`O=C(CCOC[C@H](CO)Nc1cn[nH]c(=O)c1C(F)(F)F)N1CCN(c2ccc(Cl)cn2)CC1` [Example 633, (S)-5-((1-(3-(4-(5-Chloropyridin-2-yl)piperazin-1-yl)-3-oxopropoxy)-3-hydroxypropan-2-yl)amino)-4-(trifluoromethyl)pyridazin-3(2H)-one] showed a pIC50 greater than 7.00.
`C[C@@H](COCCC(=O)N1CCN(c2cnc(C(F)(F)F)cn2)CC1)Nc1cn[nH]c(=O)c1C(F)(F)F` [Example 613, (S)-5-((1-(3-Oxo-3-(4-(5-(trifluoromethyl)pyrazin-2-yl)piperazin-1-yl)propoxy)propan-2-yl)amino)-4-(trifluoromethyl)pyridazin-3(2H)-one] gave a pIC50 greater than 7.00.
With `CC(=O)N1CCN(C(=O)CCOC[C@@H]2c3ccccc3CN2c2cn[nH]c(=O)c2C(F)(F)F)CC1` [Example 419, (S)-5-(1-((3-(4-Acetylpiperazin-1-yl)-3-oxopropoxy)methyl)isoindolin-2-yl)-4-(trifluoromethyl)pyridazin-3(2H)-one] the pIC50 was greater than 7.00.
In the case of `N#Cc1ccc(N2CCN(C(=O)c3cc(OC[C@H]4c5ccccc5CN4c4cn[nH]c(=O)c4C(F)(F)F)ccn3)CC2)nc1` [Example 356, (R)-6-(4-(4-((2-(6-Oxo-5-(trifluoromethyl)-1,6-dihydropyridazin-4-yl)isoindolin-1-yl)methoxy)picolinoyl)piperazin-1-yl)nicotinonitrile], the pIC50 was 6.00 to 7.00.
`N#Cc1cnc(N2CCN(C(=O)c3cccc(OC[C@@H]4CCCN4c4cn[nH]c(=O)c4C(F)(F)F)c3)CC2)nc1` [Example 439, (S)-2-(4-(3-((1-(6-Oxo-5-(trifluoromethyl)-1,6-dihydropyridazin-4-yl)pyrrolidin-2-yl)methoxy)benzoyl)piperazin-1-yl)pyrimidine-5-carbonitrile] was tested, and the pIC50 was greater than 7.00.
With `N#Cc1c(OCCOCCC(=O)N2CCN(c3ncc(C(F)(F)F)cn3)CC2)cn[nH]c1=O` [Example 553, 3-Oxo-5-[2-(3-oxo-3-[4-[5-(trifluoromethyl)pyrimidin-2-yl]piperazin-1-yl]propoxy)ethoxy]-2,3-dihydropyridazine-4-carbonitrile] the pIC50 was greater than 7.00.
Work on `N#Cc1ccc(N2CCN(C(=O)N3CC[C@@H](OC[C@@H]4CCCN4c4cn[nH]c(=O)c4C(F)(F)F)C3)CC2)nc1` [Example 129A, 6-[4-[(3R)-3-[[(2S)-1-[6-oxo-5-(trifluoromethyl)-1,6-dihydropyridazin-4-yl]pyrrolidin-2-yl]methoxy]pyrrolidine-1-carbonyl]piperazin-1-yl]pyridine-3-carbonitrile] yielded a pIC50 of 6.00 to 7.00.
`N#Cc1ccc(N2CCN(C(=O)C/C=C\OC[C@@H]3c4ccccc4CN3c3cn[nH]c(=O)c3C(F)(F)F)CC2)nc1` (single isomer, unassigned; isomer a) [Example 79 Isomer A] showed a pIC50 greater than 7.00.
`COC[C@@H](COCCC(=O)N1CCN(c2ncc(Cl)cn2)CC1)Oc1cn[nH]c(=O)c1C(F)(F)F` (single isomer, unassigned) showed a pIC50 greater than 7.00.
Work on `O=C(C[C@@H]1CC[C@H]([C@@H]2CCCN2c2cn[nH]c(=O)c2C(F)(F)F)O1)N1CCN(c2ccc(Cl)cn2)CC1` [Example 148B, 5-[(2S)-2-[(2R,5S)-5-[2-[4-(5-chloropyridin-2-yl)piperazin-1-yl]-2-oxoethyl]oxolan-2-yl]pyrrolidin-1-yl]-4-(trifluoromethyl)-2,3-dihydropyridazin-3-one] yielded a pIC50 of 6.00 to 7.00.
For `C[C@H](O)[C@@H](COCCC(=O)N1CCN(c2ncc(C(F)(F)F)cn2)CC1)Nc1cn[nH]c(=O)c1C(F)(F)F` [Example 635, 5-(((2R,3S)-3-Hydroxy-1-(3-oxo-3-(4-(5-(trifluoromethyl)pyrimidin-2-yl)piperazin-1-yl)propoxy)butan-2-yl)amino)-4-(trifluoromethyl)pyridazin-3(2H)-one], the pIC50 was greater than 7.00.
`CC(C)Oc1cccc2c1CN(c1cn[nH]c(=O)c1C(F)(F)F)C2` [Example 193, 5-(4-Isopropoxyisoindolin-2-yl)-4-(trifluoromethyl)pyridazin-3(2H)-one] showed a pIC50 greater than 7.00.
Work on `CC[C@@H](COCCC(=O)N1CCN(c2ccc(Cl)cn2)CC1)Nc1cn[nH]c(=O)c1C(F)(F)F` [Example 586, 5-[[(2S)-1-[3-[4-(5-Chloropyridin-2-yl)piperazin-1-yl]-3-oxopropoxy]butan-2-yl]amino]-4-(trifluoromethyl)-2,3-dihydropyridazin-3-one] yielded a pIC50 greater than 7.00.
In the case of `COC[C@@H](COCCC(=O)N1CCN(c2ncc(C(F)(F)F)cn2)CC1)Sc1cn[nH]c(=O)c1C(F)(F)F` [Example 691, (S)-5-((1-Methoxy-3-(3-oxo-3-(4-(5-(trifluoromethyl)pyrimidin-2-yl)piperazin-1-yl)propoxy)propan-2-yl)thio)-4-(trifluoromethyl)pyridazin-3(2H)-one], the pIC50 was greater than 7.00.
Work on `CC[C@@H](COCCC(=O)N1CCN(c2ccc(C#N)cn2)CC1)Oc1cn[nH]c(=O)c1C(F)(F)F` [Example 589, 6-(4-[3-[(2S)-2-[[6-Oxo-5-(trifluoromethyl)-1,6-dihydropyridazin-4-yl]oxy]butoxy]propanoyl]piperazin-1-yl)pyridine-3-carbonitrile] yielded a pIC50 greater than 7.00.
Compound `CC[C@@H](COCCC(=O)N1CCN(c2ncc(C(F)(F)F)cn2)CC1)Nc1cn[nH]c(=O)c1C(F)(F)F` [Example 585, 5-[[(2S)-1-(3-Oxo-3-[4-[5-(trifluoromethyl)pyrimidin-2-yl]piperazin-1-yl]propoxy)butan-2-yl]amino]-4-(trifluoromethyl)-2,3-dihydropyridazin-3-one] has a pIC50 greater than 7.00.
With `N#Cc1ccc(N2CCN(C(=O)c3cccc(OCCOC[C@@H]4CCN(c5cn[nH]c(=O)c5C(F)(F)F)C4)c3)CC2)nc1` [Example 470, (R)-6-(4-(3-(2-((1-(6-Oxo-5-(trifluoromethyl)-1,6-dihydropyridazin-4-yl)pyrrolidin-3-yl)methoxy)ethoxy)benzoyl)piperazin-1-yl)nicotinonitrile] the pIC50 was greater than 7.00.
In the case of `O=c1[nH]ncc(N2Cc3cc(OCCN4CCOCC4)cnc3C2)c1C(F)(F)F` [Example 325, 5-(3-(2-Morpholinoethoxy)-5,7-dihydro-6H-pyrrolo[3,4-b]pyridin-6-yl)-4-(trifluoromethyl)pyridazin-3(2H)-one], the pIC50 was 6.00 to 7.00.
For `COC[C@@H](COCCC(=O)N1CCN(c2ncc(Cl)cn2)CC1)Nc1cn[nH]c(=O)c1C(F)(F)F` [Example 558, 5-[[(2S)-1-[3-[4-(5-Chloropyrimidin-2-yl)piperazin-1-yl]-3-oxopropoxy]-3-methoxypropan-2-yl]amino]-4-(trifluoromethyl)-2,3-dihydropyridazin-3-one], the pIC50 was greater than 7.00.
Work on `N#Cc1ccc(N2CCN(C(=O)C[C@H]3CC[C@H](COc4cn[nH]c(=O)c4Cl)O3)CC2)nc1` (single isomer, unassigned) [Example 582 Isomer B] yielded a pIC50 of 6.00 to 7.00.
Compound `COC[C@H](COCCC(=O)N1CCN(c2ccc(C#N)cn2)CC1)Nc1cn[nH]c(=O)c1C(F)(F)F` (single isomer, unassigned) [Example 518A] has a pIC50 of no more than 6.00.
In the case of `C[C@@H](CC(=O)N1CCN(c2ccc(C#N)cn2)CC1)OC[C@H](C)Oc1cn[nH]c(=O)c1C(F)(F)F` (single isomer, unassigned) [Example 576 Isomer B], the pIC50 was greater than 7.00.
With `Cc1cnc(N2CCN(C(=O)CCOC[C@H](C)Nc3cn[nH]c(=O)c3C(F)(F)F)CC2)nc1` [Example 670, (S)-5-((1-(3-(4-(5-Methylpyrimidin-2-yl)piperazin-1-yl)-3-oxopropoxy)propan-2-yl)amino)-4-(trifluoromethyl)pyridazin-3(2H)-one] the pIC50 was greater than 7.00.
Work on `N#Cc1ccc(N2CCN(C(=O)CCOC[C@@H](Nc3cn[nH]c(=O)c3C(F)(F)F)c3ccncc3)CC2)nc1` [Example 527A, 6-(4-[3-[(2S)-2-[[6-Oxo-5-(trifluoromethyl)-1,6-dihydropyridazin-4-yl]amino]-2-(pyridin-4-yl)ethoxy]propanoyl]piperazin-1-yl)pyridine-3-carbonitrile] yielded a pIC50 greater than 7.00.
For `O=C(CCOC[C@@H]1CCCN1c1cn[nH]c(=O)c1C(F)(F)F)N1CCN(c2ccc(C(F)(F)F)cn2)CC1` [Example 458, (S)-5-(2-((3-Oxo-3-(4-(5-(trifluoromethyl)pyridin-2-yl)piperazin-1-yl)propoxy)methyl)pyrrolidin-1-yl)-4-(trifluoromethyl)pyridazin-3(2H)-one], the pIC50 was greater than 7.00.
`COC[C@@H](COCCC(=O)N1CCN(c2ncc(C(F)(F)F)cn2)CC1)Nc1cn[nH]c(=O)c1Br` [Example 668, (S)-4-Bromo-5-((1-methoxy-3-(3-oxo-3-(4-(5-(trifluoromethyl)pyrimidin-2-yl)piperazin-1-yl)propoxy)propan-2-yl)amino)pyridazin-3(2H)-one] gave a pIC50 greater than 7.00.
`N#Cc1ccc(N2CCN(C(=O)[C@@H]3CCC[C@H](OC[C@@H]4CCCN4c4cn[nH]c(=O)c4C(F)(F)F)C3)CC2)nc1` (single isomer, unassigned) [Example 57 Isomer D] gave a pIC50 of 6.00 to 7.00.
